Data from publication PMC12810539, “EGFR-targeted gadolinium contrast agents for enhanced molecular magnetic resonance imaging of tumors” (The Journal of Biological Chemistry, 2025).

How the values were obtained:
[1] = test system: MDA-MB-231, A549, SGC-7901, SW480 and U138 MG cells; assay: In vitro MR imaging of labelled tumor cells, with and without C225; type: cell-based, human; conditions: for MRI signal of cells pretreated with versus without C225: C225 preincubation 12 h, then 50 μM Gd for 24 h, all tested cell lines; for MR enhancement effect in MDA-MB-231, A549, SGC-7901 and SW480 tumor cells / MR enhancement effect in U138MG cell line: 37 °C, 11.7 T MR microimaging of cell pellets
Description: For the in vitro MRI assay, MDA-MB-231, A549, SGC-7901, SW480, and U138 MG cells were seeded into 100 mm × 20 mm cell culture dishes at a density of approximately 1 × 10^6 cells per dish and incubated with EBP-Gd-DO3A, EBP-(Gd-DO3A)3 or Gadovist at a Gd concentration of 50 μM for 24 h at 37 °C. After the completion of the labelling, the cells were washed with PBS 3 times and collected into 1.5 mm-i.d. capillary tubes that were centrifuged at 1400 rpm for 5 min to enable cells to be well packed in the bottom of the capillary for the MRI. The in vitro MRI experiments were performed on an 11.7 T Bruker NMR spectrometer that functioned as an MR microimaging system with a maximum gradient strength of 1.0 T/m. A linear 15-mm-i.d birdcage coil was used for radiofrequency transmission and signal reception. The parameters used for acquiring images were TR = 500 ms, TE = 5.2 ms, FOV = 12 × 12 mm^2, matrix = 96 × 96, flip angle = 90°, slice thickness/gap = 0.8/0.2 mm and number of averages = 4.
The C225-preincubated cells described above were imaged with MRI to observe the contrast enhancement effects. The method used for the MR imaging of cell pellets was the same as that for the in vitro MR imaging of the conjugates described above.

[2] = Longitudinal and transverse relaxivity at 3T MRI; type: physicochemical; conditions: in water, 37 °C, slope of 1/T1 versus Gd concentration (0-0.5 mM)
Description: The EBP-Gd-DO3A and EBP-(Gd-DO3A)3 conjugates were confirmed by matrix-assisted laser desorption/ionization time-of-flight (MALDI-TOF) mass spectrometry (Applied Biosystems) in a linear mode with 2,5-dihydroxybenzoic acid (2,5-DHB) as the matrix. The Gd content in the conjugates was determined by ICP-MS (Thermo Fisher Scientific) ([31]). […] Serial dilutions of EBP-Gd-DO3A, EBP-(Gd-DO3A)3, and Gadovist were prepared in water at Gd concentrations of 0.5, 0.25, 0.125, 0.0625, 0.03125, and 0 mM. The relaxivity measurements were performed on a 3T MRI scanner (Trio, Siemens). T1 was measured using an inversion recovery method with a variable inversion time ranging from 50 to 1750 ms. T2 was measured using a Carr-Purcell-Meiboom-Gill sequence with 500 echoes collected. The relaxivities (r1 and r2) of the agents were calculated from the slopes of the plots of 1/T1 and 1/T2 versus the Gd concentrations.

EGFR = biological target: T1, EGFR (Homo sapiens, UniProt P00533); assay: EGFR inhibition assay (competitive cell binding with anti-EGFR antibody C225); type: cell-based; conditions: all tested cell lines, 5 μg/ml C225 preincubation 12 h, then 50 μM Gd for 1 h, ICP-MS
T1 construct: endogenous in cells; host or cells: MDA-MB-231, A549, SGC-7901, SW480, U138 MG (human tumour cell lines, CCTCC)
Description: To further verify the receptor-binding affinity and specificity of EBP-Gd-DO3A and EBP-(Gd-DO3A)3, a competitive cell-binding assay was carried out. MDA-MB-231, A549, SGC-7901, SW480, and U138 MG cells were preincubated with fresh serum-free medium containing 5 μg/ml anti-EGFR monoclonal antibody C225 (ImClone Systems, Inc., New York, NY) for 12 h at 37 °C. The culture supernatant was removed from the resulting solution, followed by the addition of EBP-Gd-DO3A, EBP-(Gd-DO3A)3, or Gadovist at a Gd concentration of 50 μM for the indicated time points. The cellular Gd content was measured by ICP-MS as described above, and the C225-induced reduction in the cellular Gd accumulation was used to calculate an inhibition index of cellular Gd uptake ([34]).

[3] = In vivo biodistribution: plasma, kidney, liver, heart (ICP-MS); design: species or system SCID mice; conditions: for Gd content in the kidneys / plasma Gd level over time: tumor-bearing SCID mice, ICP-MS; for Gd content in the kidneys: mean ± SD, 6 animals per group; for plasma Gd level over time: 0.25-48 h
Description: The 6- to 8-week-old male non-obese diabetic (NOD)/severe-combined immunodeficient (SCID) mice were used to establish MDA-MB-231 (EGFR-overexpressing) and U138 MG (non-EGFR-overexpressing) xenograft models ([35]). The mice were obtained from the Experimental Animal Center of Tongji Medical College, Huazhong University of Science and Technology, and all the experimental procedures involving animals were further approved by the Animal Care and Use Committee of Huazhong University of Science and Technology. The mice were housed separately in polycarbonate cages and provided with food and water. Tumors were grown under the skin by s.c. injection of 1 × 10^6-3 × 10^6 cells. The mice were randomized into groups for the biodistribution assay and MR imaging in vivo when the xenografts reached 5 to 7 mm in diameter. All procedures were approved by the Institutional Animal Care and Use Committee of Huazhong University of Science and Technology (approval no.270193).
The tumor-bearing SCID mice were randomly divided into groups, with 6 animals in each group, an injected via the tail vein with 50 μM Gd/kg EBP-Gd-DO3A, EBP-(Gd-DO3A)3, or Gadovist. At the selected time points (0.25, 0.5, 1, 2, 4, 8, 24, and 48 h) after injection, blood was collected and centrifuged to separate the plasma. Then, organ and tissue samples, including the kidneys, liver, heart, and tumor, were collected and weighed. The tissue samples were liquefied for 1 week and then transferred into centrifuge tubes and centrifuged at 14,000 rpm for 5 min. The resulting supernatants were diluted tenfold with deionized water and centrifuged again under the same conditions. The Gd concentration in the samples was measured by ICP-MS ([36]).

[4] = 2 h after single i.v. 50 μM Gd/kg
[5] = 24 h after single i.v. 50 μM Gd/kg

cellular Gd accumulation with versus without C225 pretreatment (EGFR)	Gd content in the kidneys ([3]; 0.5 h after single i.v. 50 μM Gd/kg) [nM/g tissue]	Gd retention in the liver and heart ([3]; single i.v. 50 μM Gd/kg, compared with EBP-Gd-DO3A and EBP-(Gd-DO3A)3, ICP-MS)	Compound	T1 signal intensity in cells with different levels of EGFR expression ([1]; 50 μM Gd, 24 h, ROI analysis, p > 0.05)	MRI signal of cells pretreated with versus without C225 [1]	longitudinal relaxivity (r1) [2] [mM⁻¹ s⁻¹]	Gd content in the kidneys [3, 4] [nM/g tissue]	Gd content in the kidneys [3, 5] [nM/g tissue]	plasma Gd level over time ([3]; single i.v. 50 μM Gd/kg)	MR enhancement effect in MDA-MB-231, A549, SGC-7901 and SW480 tumor cells ([1]; 50 μM Gd, 24 h)	MR enhancement effect in U138MG cell line ([1]; 50 μM Gd, 24 h)	Gd content in the kidneys ([3]; 8 h after single i.v. 50 μM Gd/kg) [nM/g tissue]	Gd content in the kidneys ([3]; 4 h after single i.v. 50 μM Gd/kg) [nM/g tissue]
No significant difference	10.70 ± 2.10	relatively high at all time points	O=C([O-])CN1CCN(CC(=O)[O-])CCN([C@H](CO)[C@H](O)CO)CCN(CC(=O)[O-])CC1.[Gd+3] (racemic) [Gadovist, reference compound]	not significantly different	no significant difference	3.14	8.73 ± 1.37	1.58 ± 0.72	rapidly disappeared from circulation				
reduced			CMYIEALDKYAC [EBP-(Gd-DO3A)3]		reduced	7.24	12.40 ± 1.60	3.50 ± 1.40	maintained at a high level for a much longer time	strong enhancement effects	much weaker enhancement effect	8.12 ± 1.28	
reduced			CMYIEALDKYAC [EBP-Gd-DO3A]		reduced	5.08	10.76 ± 1.14	2.52 ± 0.68	maintained at a high level for a much longer time	strong enhancement effects	much weaker enhancement effect		8.25 ± 0.75
